Data: US20110130374A1, “Small Pyrimidine Derivatives and Methods of Use Thereof” (BIOSEARCH(2007) LTD., priority 2009, published 2011)

Assays:
A375 cells = assay: Cell viability, WST-1 reagent, A375 cells grown in two-dimension; assay type: cell-based; details: WST-1, 72 h post treatment
Method: Compound 1 (PRT7000467), Compound 2 (PRT7041128), and Compound 3 (PRT7081582) are not toxic to cells grown in two-dimension. A375 cells were cultured with RPMI and 10% FBS. The cells were treated with different concentrations of Compound 1 (PRT7000467) and Compound 2 (PRT7041128), then the viability of the cells was determined seventy-two hours post treatment using WST-1 reagent (Roche) (FIG. 1B)

[1] = tested on: MDA-MB231 breast cancer cells; assay: Soft agar colony formation, MDA-MB231 breast cancer cells; assay type: cell-based; details: 14 days, MTT
Method: The assay was done using CYTOSELECT™ 96-Well In Vitro Tumor Sensitivity Assay kit from Cell Biolabs, Inc. (San-Diego, Calif.). The cells were grown for 14 days with RPMI and 10% FBS medium in the presence of the indicated concentration of Compound 1 (PRT7000467). The quantification of the colony formation on soft agar was done using MTT reagent after solubilization of the agar (all the materials are supplied in the kit). The IC50 value was calculated using Prism software.

A2058 (melanoma) cells = assay: Transwell cell migration assay, A2058; assay type: cell-based; details: Homo sapiens
Excerpt: (§1) A375 (melanoma) (CRL-1619, ATCC, Manassas, Va., USA), A431 (melanoma) (CRL-2592, ATCC, Manassas, Va., USA), A2058 (melanoma) (CRL-11147, ATCC, Manassas, Va., USA), MDA-MB-231 (breast) (HTB-26, ATCC, Manassas, Va., USA), LS175T (colon) (ATCC, Manassas, Va., USA), HT29 (colon) (HTB-38, ATCC, Manassas, Va., USA), PC3 (prostate) (CRL-1435, ATCC, Manassas, Va., USA), Panc03.27 (pancreatic) (ATCC, Manassas, Va., USA), 4T1 (breast-mouse) (CRL-2539, ATCC, Manassas. Va., USA), D122 (lung-mouse) (the Weizmann Institute of Science), D122-luc (lung-mouse) (the Weizmann Institute of Science), and B16 F10.9 (melanoma-mouse) cells (Caliper Life Sciences, Hopkinton Mass.), were grown in RPMI medium supplemented with 10% FBS. HUVEC cells were grown in Endothelial Cell Growth Medium 2 and THP1 cells were grown in RPMI medium supplemented with 10% FBS, 2 mM L-Glutamine, 1.5 g/L sodium bicarbonate, 10 mM Hepes, 1 mM sodium pyruvate, 4.5 g/L glucose and 0.05 mM 2-mercaptoethanol. The cells were starved for 24 hours in medium without FBS. […] Cells that migrated to the lower side of the membrane were stained with Calcein-AM (Sigma) and images were taken with a fluorescence microscope. The number of migrating cells was quantified by ImageJ software and the IC50 values were calculated using Prism software (Graphpad).

[2] = tested on: Panc03.27 (pancreatic) cells; assay: Transwell cell migration assay, Panc03.27; assay type: cell-based; details: Homo sapiens, PANC-03-27; Panc 03.27, Pancreatic
Excerpt: as §1

HUVEC cells [3] = assay: Transwell cell migration assay, HUVEC; assay type: cell-based; details: Homo sapiens, Endothelial
Excerpt: as §1

HUVEC cells [4] = assay: HUVEC tube-formation assay; assay type: cell-based, human; details: 25 μM, 6 h, BME with 50 ng/ml VEGF (FIG. 3)
Method: Human umbilical vein endothelial cells (HUVEC) were grown routinely in Endothelial Cell Growth Medium 2 with SupplementMix (PromoCell, Germany) containing 15% fetal bovine serum. For Tube-formation assay, 1×10^4 cells, in the above medium containing 5% fetal bovine serum, were seeded on top of Cultrex reduced growth factor Basement Membrane Extract (BME) (R&D Systems, Minneapolis, Minn.) supplemented with 50 ng/ml VEGF (Prospec, Israel). The cells were treated with either solvent (50% DMSO/50% PEG400), 25 μM compound 1 (PRT7000467), 10 μM LY294004 (Cayman Chemical, Ann Arbor, Mich.) or 3 μM FTY720 (Cayman Chemical, Ann Arbor, Mich.) as indicated. LY294004 is a PI3K inhibitor and FTY720 is a modulator of sphingosine-1-phosphate receptors, both of them served as positive controls. Six hours later the cells were stained with Calcein-AM (Sigma, Israel) and images were taken with a fluorescence microscope.

[5] = tested on: B16F10 murine melanoma cells; assay: Anti-metastasis assay: lung metastases in mice implanted with B16F10 melanoma cells; assay type: in vivo, female B6D2F1 mice; details: i.p., start D3, foci count on D17 vs comparator mice; dose regimen of the value not stated (FIGS. 4A and B)
Method: Compound 1 and Compound 3 were tested for efficacy in inhibiting lung metastases in female B6D2F 1 mice implanted with B16F10 murine melanoma cells. Tumors were initiated on Day 1 (D1) by intravenously (i.v.) injecting 1×10^5 B16F10 tumor cells into the tail vein of test mice. Mice were sorted into three vehicle-treated control groups (n=20 or 10/group) and nine treatment groups (n=10/group). Compound 1 and Compound 3 monotherapies were administered at 10 mg/kg (2 mg/mL at 5 mL/kg) and at 20 mg/kg (4 mg/mL at 5 mL/kg), intraperitoneally (i.p.), daily for fourteen doses starting on D3 (qd×14 (start D3)). Compound 1 and Compound 3 monotherapies also were administered at 20 mg/kg (4 mg/mL at 5 mL/kg), i.p., twice daily for twenty-nine doses starting on D3 (bid×14.5 (start D3)). […]
The study endpoint was defined as 100 metastases per lung set in animals periodically sampled from the saline control group. […] All animals remaining on study were euthanized, their metastases were counted, and the mean±SEM foci count for each group was calculated. Efficacy was determined by an analysis of percent inhibition, the percent change in the mean foci count on D17 for treated versus comparator mice, and by statistical assessment of differences in foci counts between treated and comparator mice.

Row | Structure (SMILES) | toxicity to cells grown in two-dimension (A375 cells) | soft agar colony formation ([1]; MDA-MB231 breast cancer cells) | LD50 in the soft agar colony formation assay ([1]; MDA-MB231 cells) | IC50 (A2058 (melanoma) cells) | IC50 [2] | IC50 (HUVEC cells [3]) | formation of tube-like structure by HUVEC cells (HUVEC cells [4]) | efficacy in inhibiting lung metastases (percent inhibition of mean foci count) [5]
1 | Cc1cc(C)nc(NS(=O)(=O)c2ccc(NC(=O)/C(=C\c3cccs3)NC(=O)c3cccs3)cc2)n1 [Compound 1] | not toxic | inhibits soft agar colony formation | 13.08 µM | 3.5 µM | 1 µM | 2.9 µM | inhibits the formation of tube-like structure | 51%
2 | Cc1cc(S(=O)(=O)Nc2ncccn2)ccc1NC(=O)/C(=C\c1cccs1)NC(=O)c1cccs1 [Compound 3] | not toxic |  |  |  |  |  |  | 45%
